According to US12612412B2, “Antiviral heterocyclic compounds” (Enanta Pharmaceuticals, Inc., priority 2021, dated 2026):
Where two headings read alike, the source gives them in different places.

How the values were obtained:
[1] = tested on: genotype A, "Long" strain RSV; assay: RSV-A assay (CPE protection in Hep-2 cells, ATPlite readout); type: cell-based, Human respiratory syncytial virus (HRSV); conditions: human respiratory syncytial virus, MOI 0.1, CPE protection
How it was run: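 Protection from RSV-induced cytopathic effect measured by ATP content (ATPlite) after 5-day culture. Infection used genotype A Long virus at MOI 0.1 on 8,000 Hep-2 cells per well, with compound serially diluted 2-fold; values are EC50.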

[2] = tested on: HMPV clinical isolate TN/1501/A1; assay: HMPV antiviral assay Method-B (clinical isolate TN/1501/A1 in LLC-MK2 cells, ATP-Lite readout); type: cell-based, Human metapneumovirus (HMPV); conditions: human metapneumovirus, LLC-MK2, 144 h, hMPV WT1501 (clinical isolate TN/1501/A1), 6 days
How it was run: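 EC50 derived by four-parameter logistic fit of percent cell health, measured by ATP-Lite luminescence and normalised to virus-only and uninfected-cell controls. Compounds run in duplicate from 10 μM top, 3-fold, 10 points. Infection: LLC-MK2 cells, MOI 0.014, 2 μg/mL final TPCK-trypsin, serum-free, 6 days at 37° C.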

[3] = RSV-A Long strain, read-out: Human RSV-A (“Long”) EC50
[4] = genotype A “Long” strain RSV, read-out: Human RSV-A (“Long”)

| SMILES | EC50 [1, 3] [nM] | EC50 [2] [nM] | EC50 [1, 4] [nM] |
| --- | --- | --- | --- |
| COc1cc(C(=O)NC[C@](O)(c2cc3c(c(-c4ccc(F)c(Cl)c4)n2)OC[C@]3(C(N)=O)C(F)F)C(F)(F)F)cc2sc(C)nc12 [Example 1018] | > 200 | > 500 | – |
| C[C@]1(C(N)=O)COc2c1cc([C@@](O)(CNC(=O)c1cc(Cl)c3nn(C4CC4)cc3c1)C1CC1)nc2-c1csc2c(F)cccc12 [Example 622] | – | < 500 | < 200 |
| COc1cc(C(=O)NC[C@](O)(c2nc(-c3ccc4c(c3)OC(F)(F)O4)c3c(c2F)[C@@](C)(C(N)=O)CO3)C2CC2)cc2cn(C(F)F)nc12 [Example 860] | < 200 | < 500 | – |
| COc1cc(C(=O)NC[C@](O)(c2cc3c(c(-c4ccc(F)cc4)n2)OC[C@]3(C)C(=O)NCC(C)(C)O)C(F)(F)F)cc2cn(C3CC3)nc12 [Example 1170] | < 200 | > 500 | – |
| COc1cc(C(=O)NC[C@](O)(c2cc3c(c(-c4ccc5nc(C)ccc5c4)n2)OC[C@]3(C)C(N)=O)C(F)(F)F)cc2cn(C3CC3)nc12 [Example 967] | > 200 | > 500 | – |
| C[C@]1(C(N)=O)COc2c1cc([C@@](O)(CNC(=O)c1ccnc3cc[nH]c13)C(F)(F)F)nc2-c1ccc(F)cc1 [Example 488] | – | > 500 | < 200 |
| COc1cc(C(=O)NC[C@](O)(c2cc3c(c(-c4cc(Cl)c(F)cc4F)n2)OC[C@]3(C)C(N)=O)C2(F)CC2)cc2cc(Br)c(C)nc12 [Example 1127] | < 200 | < 500 | – |
| Cc1cnc2c(OC(F)F)cc(C(=O)NC[C@](O)(c3cc4c(c(-c5ccc6c(c5)OC(F)(F)O6)n3)OC[C@]4(C)C(N)=O)C3CC3)cc2c1 [Example 538] | – | < 500 | < 200 |
| C[C@]1(C(N)=O)COc2c1cc([C@@](O)(CNC(=O)c1ccc3nn(C4CC4)cc3c1)C1CC1)nc2-c1cccc(Br)c1F [Example 1100] | < 200 | < 500 | – |
| COc1cc(C(=O)NC[C@](O)(c2cc3c(c(-c4ccc(F)c(Cl)c4)n2)OC[C@]3(C)C(N)=O)C2CC2)cc2cn(C3CC3)nc12 [Example 575] | – | < 500 | < 200 |
| COc1cc(C(=O)NC[C@](O)(c2cc3c(c(-c4ccc5c(c4)OC(F)(F)O5)n2)OC[C@]3(C)C(N)=O)C(F)(F)F)cc2sc(C)nc12 [Example 505] | – | < 500 | < 200 |
| COc1cc(C(=O)NC[C@](O)(c2cc3c(c(-c4ccc5c(c4)OC(F)(F)O5)n2)OC[C@]3(C)C(N)=O)C2CC2)cc2cn(C(F)F)nc12 [Example 823] | – | < 500 | < 200 |
| COc1cc(C(=O)NC[C@](O)(c2cc3c(c(-c4ccc(F)c(Cl)c4)n2)OC[C@]3(C)C(N)=O)C2(F)CC2)cc2cc(Cl)c(C)nc12 [Example 719] | – | < 500 | < 200 |
| COc1cc(C(=O)NC[C@](O)(c2cc3c(c(-c4ccc(F)cc4)n2)OC[C@]3(C)C(N)=O)C2(F)CC2)cc2cc(Cl)c(C)nc12 [Example 707] | – | < 500 | < 200 |
| COc1cc(C(=O)NC[C@](O)(c2cc3c(c(-c4ccc(F)c(C(F)(F)F)c4)n2)OC[C@]3(C)C(N)=O)C2CC2)cc2cn(C3(Cl)CC3)nc12 [Example 845] | < 200 | < 500 | – |
| COc1cc(C(=O)NC[C@](O)(c2cc3c(c(-c4c(F)cc(Cl)cc4F)n2)OC[C@]3(C)C(N)=O)C2CC2)cc2cn(C3CC3)nc12 [Example 1155] | < 200 | < 500 | – |
| COc1cc(C(=O)NC[C@](O)(c2cc3c(c(-c4ccc(F)cc4)n2)OC[C@]3(C)C(N)=O)C2(F)CC2)cc2sc(C)nc12 [Example 724] | – | < 500 | < 200 |
| COc1cc(C(=O)NC[C@](O)(c2cc3c(c(-c4ccc5c(c4)OC(F)(F)O5)n2)OC[C@]3(C)C(N)=O)C2CC2)cc2cc(C3CC3)nn12 [Example 826] | – | < 500 | < 200 |

The next lines start with the values.

| EC50 [1, 3] [nM] | EC50 [2] [nM] | EC50 [1, 4] [nM] | SMILES |
| --- | --- | --- | --- |
| – | < 500 | < 200 | COc1cc(C(=O)NC[C@](O)(c2cc3c(c(-c4ccc(F)cc4Cl)n2)OC[C@]3(C)C(N)=O)C2CC2)cc2cn(C(F)F)nc12 [Example 656] |
| – | > 500 | < 200 | COc1cc(C(=O)NC[C@](O)(c2cc3c(c(-c4ccc(C(F)(F)F)c(Cl)c4)n2)OC[C@]3(C)C(N)=O)C(F)(F)F)cc2cn(C(F)F)nc12 [Example 580] |
| – | < 500 | < 200 | C[C@]1(C(N)=O)COc2c1cc([C@@](O)(CNC(=O)c1cc(OC3CC3)c3nn(C(F)F)cc3c1)C(F)(F)F)nc2-c1ccc(F)c(Cl)c1F [Example 567] |
| – | > 500 | < 200 | COc1cc(C(=O)NC[C@](O)(c2cc3c(c(-c4ccc(F)c(Cl)c4)n2)OC[C@]3(C)C(N)=O)C2(F)CC2)cc2cn(C(F)F)nc12 [Example 721] |
| < 200 | > 500 | – | COc1cc(C(=O)NC[C@](O)(c2cc3c(c(-c4cc(C(F)F)cs4)n2)OC[C@]3(C)C(N)=O)C(F)(F)F)cc2cn(C3CC3)nc12 [Example 947] |
| – | < 500 | < 200 | COc1cc(C(=O)NC[C@](O)(c2cc3c(c(-c4ccc(F)c(Br)c4F)n2)OC[C@]3(C)C(N)=O)C2CC2)cc2cn(C3(F)CC3)nc12 [Example 802] |
| < 200 | < 500 | – | COc1cc(C(=O)NC[C@](O)(c2cc3c(c(-c4ccc(F)c(F)c4F)n2)OC[C@]3(C)C(N)=O)C(F)(F)F)cc2cn(C3CC3)nc12 [Example 915] |
| – | < 500 | < 200 | COc1cc(C(=O)NC[C@](O)(c2cc3c(c(-c4ccc(F)c(C(F)(F)F)c4)n2)OC[C@]3(C)C(N)=O)C2(F)CC2)cc2cn(C(F)F)nc12 [Example 751] |
| < 200 | > 500 | – | COc1cc(C(=O)NC[C@](O)(c2cc3c(c(-c4c(F)cccc4F)n2)OC[C@]3(C)C(N)=O)C(F)(F)F)cc2cn(C3CC3)nc12 [Example 1233] |
| < 200 | > 500 | – | COc1cc(C(=O)NC[C@](O)(c2cc3c(c(-c4ccc(OC(F)(F)F)c(Cl)c4)n2)OC[C@]3(C)C(N)=O)C(F)(F)F)cc2cn(C3CC3)nc12 [Example 983] |
| < 200 | > 500 | – | COc1cc(C(=O)NC[C@](O)(c2cc3c(c(-c4ccc(F)c(F)c4Cl)n2)OC[C@]3(C)C(N)=O)C2CC2)cc2ccc(C)nc12 [Example 1196] |
| – | < 500 | < 200 | COc1cc(C(=O)NC[C@](O)(c2cc3c(c(-c4ccc(F)c(F)c4F)n2)OC[C@]3(C)C(N)=O)C2(F)CC2)cc2cn(C(F)F)nc12 [Example 744] |
| < 200 | < 500 | – | COc1cc(C(=O)NC[C@](O)(c2cc3c(c(-c4ccccc4F)n2)OC[C@]3(C)C(N)=O)C(F)(F)F)cc2cn(C3CC3)nc12 [Example 911] |
| – | < 500 | < 200 | COc1cc(C(=O)NC[C@](O)(c2cc3c(c(-c4ccc(Cl)c(F)c4F)n2)OC[C@]3(C)C(N)=O)C2CC2)cc2cn(C(F)F)nc12 [Example 684] |
| – | < 500 | < 200 | C[C@]1(C(N)=O)COc2c1cc([C@@](O)(CNC(=O)c1cc(Cl)c3nn(C4CC4)cc3c1)C1CC1)nc2-c1ccc(F)c(F)c1Cl [Example 564] |
| – | < 500 | < 200 | COc1cc(C(=O)NC[C@](O)(c2cc3c(c(-c4ccc(F)c(Cl)c4F)n2)OC[C@]3(C)C(N)=O)C2(F)CC2)cc2cc(Br)cnc12 [Example 768] |
| < 200 | < 500 | – | COc1cc(C(=O)NC[C@](O)(c2cc3c(c(-c4ccc(Cl)c(C(F)(F)F)c4)n2)OC[C@]3(C)C(N)=O)C(F)(F)F)cc2cn(C3CC3)nc12 [Example 972] |
| > 200 | > 500 | – | COc1cc(C(=O)NC[C@@](O)(c2cc3c(c(-c4c(F)cccc4F)n2)OC[C@]3(C)C(N)=O)C(F)(F)F)cc2cn(C3CC3)nc12 [Example 1232] |
| < 200 | < 500 | – | COc1cc(C(=O)NC[C@](O)(c2cc3c(c(-c4csc(C(F)(F)F)c4)n2)OC[C@]3(C)C(N)=O)C(F)(F)F)cc2cn(C3CC3)nc12 [Example 946] |
| > 200 | > 500 | – | COc1cc(C(=O)NC[C@](O)(c2cc3c(c(-c4ccc(F)c(Cl)c4)n2)OC[C@]3(C(N)=O)C(F)F)C(F)(F)F)cc2sc(C3CC3)nc12 [Example 1016] |
| – | < 500 | < 200 | Cc1cnc2c(OC(F)F)cc(C(=O)NC[C@](O)(c3cc4c(c(-c5ccc(F)c(F)c5F)n3)OC[C@]4(C)C(N)=O)C3(F)CC3)cc2c1 [Example 730] |
| < 200 | > 500 | – | COc1cc(C(=O)NC[C@@](O)(c2cc3c(c(-c4ccc(OC(F)F)cc4)n2)OC[C@]3(C)C(N)=O)C(F)(F)F)cc2cn(C3CC3)nc12 [Example 925] |
| – | < 500 | < 200 | C[C@]1(C(N)=O)COc2c1cc([C@@](O)(CNC(=O)c1cc(OC3CC3)c3nn(C4(F)CC4)cc3c1)C(F)(F)F)nc2-c1cc(Cl)c(F)cc1F [Example 615] |
| – | < 500 | < 200 | COc1cc(C(=O)NC[C@](O)(c2cc3c(c(-c4ccc(F)c(F)c4Cl)n2)OC[C@]3(C)C(N)=O)C2CC2)cc2cn(C3(F)CC3)nc12 [Example 562] |
| < 200 | > 500 | – | COc1cc(C(=O)NC[C@](O)(c2cc3c(c(-c4cccc(OC(F)(F)F)c4)n2)OC[C@]3(C)C(N)=O)C(F)(F)F)cc2cn(C3CC3)nc12 [Example 978] |
| – | < 500 | < 200 | C[C@]1(C(N)=O)COc2c1cc([C@@](O)(CNC(=O)c1cc(OCC(F)F)c3nn(C4(F)CC4)cc3c1)C(F)(F)F)nc2-c1cc(Cl)c(F)cc1F [Example 617] |
